In patent publication US20080293647A1, “Combined Use Of Vitamin D Derivatives And Anti-Proliferative Agents For Treating Bladder Cancer” (priority 2004, published 2008):
“And” between values parts separate entries of the source, which are not always exact repeats. Identical values can stand only once. Like-named read-outs stand apart in the source and are kept apart here.

Key:
[1] = test system: T24; test: Inhibition of cell proliferation, T24 human bladder cancer cells (CyQuant); format: cell-based; conditions: read-out: Bladder Cancer Cell Lines IC50 (μM) T24
Protocol: (§1) After an additional 96-h culture, the medium was removed and the plates frozen at −80° C. Cell proliferation was evaluated using CyQuant cell proliferation assay kit from Molecular Probes (Eugene, Oreg.).

[2] = test system: RT112; test: Inhibition of cell proliferation, RT112 human bladder cancer cells (CyQuant); format: cell-based; conditions: read-out: Bladder Cancer Cell Lines IC50 (μM) RT112
Protocol: as §1

[3] = test system: RT4; test: Inhibition of cell proliferation, RT4 human bladder cancer cells (CyQuant); format: cell-based; conditions: read-out: Bladder Cancer Cell Lines IC50 (μM) RT4
Protocol: as §1

[4] = test system: 24-hydroxylase (CYP24); test: Expression of 24-hydroxylase (CYP24) in human bladder cancer cell lines, Real Time RT-PCR; format: cell-based; conditions: 100 nM, 2 h
[5] = Stability/compatibility of epirubicin and calcitriol solution for intravesical instillation (HPLC-UV); format: physicochemical
Protocol: Approximately 12 mg of freeze-dried Farimorubicina® powder (approx. 2 mg of epirubicin) were dissolved in water to produce a concentrated stock solution. After vortexing, the concentrated stock was diluted 1:2 using a isotonic saline containing Tween 20 at 0.1% (w/v) to provide Sample B. After further vortexing, Sample B was stored at 4° C. until use. […] The solution was mixed and stored at −20° C. until use. 100 μl of the concentrated stock solution was then taken and diluted with 900 μl of isotonic saline containing Tween 20 0.1% (w/v). After shaking the sample was stored at 4° C. until use. […] Following mixing by vortexing, the sample was stored at 5° C. and analysed using HPLC chromatography after preparation (t=0) and after 2.5 hr (t=150 min). [table]

[6] = test system: human bladder cancer cell lines; test: Combination of calcitriol with chemotherapeutic agents, bladder cancer cell line proliferation, combination index method; format: cell-based; conditions: agent combined with calcitriol; combination index method (CalcuSyn)
Protocol: Proliferation was measured after an additional 96 h using CyQuant cell proliferation assay kit. Drug interactions (as shown in FIG. 1) were evaluated by the median-effect/isobologram method using CalcuSyn software (Biosoft, Cambridge, UK). Combination Indices (CI) were calculated using the non-constant ratio combination design, determining synergism or antagonism for each data point.

[7] = Homo sapiens, T-24, 96-h culture
[8] = Homo sapiens, RT-112, 96 h, 96-h culture
[9] = Homo sapiens, RT-4, 96 h, 96-h culture
[10] = combination (calcitriol 50 μg/ml + epirubicin 1 mg/ml), t = 0 min
[11] = combination (calcitriol 50 μg/ml + epirubicin 1 mg/ml), t = 150 min, stored at 5° C.
[12] = single-component solution (epirubicin 1 mg/ml; calcitriol 100 μg/ml), HPLC peak area

Compound: 1,25-Dihydroxy-21-16,23Z-diene-26,27-hexafluoro-19-nor-cholecalciferol
- IC50 ([1]; 96-h culture): 58.7 µM
- IC50 ([2]; 96-h culture): 24 µM
- IC50 ([3]; 96-h culture): 20 µM

Compound: C=C1/C(=C\C=C2/CCC[C@@]3(C)C2CCC3C2(CCCC(C)(C)O)CC2)CC(OC(C)=O)C[C@@H]1OC(C)=O (stereo partly drawn) [1,3-Di-O-acetyl-1,25-dihydroxy-20-cyclopropyl-cholecalciferol]
- IC50 [1, 7]: 52.1 µM
- IC50 [2, 8]: 9 µM
- IC50 [3, 9]: 10 µM

Compound: CC(=O)O[C@@H]1CC(=C/C=C2\CCC[C@]3(C)C([C@H](C)CCC(=O)C(C)(C)O)=CCC23)C[C@@H](OC(C)=O)C1 (stereo partly drawn) [1,3-O-Diacetyl-1,25-Dihydroxy-16-ene-24-Keto-19-nor-Cholecalciferol]
- IC50 [1, 7]: 31 µM
- IC50 [2, 8]: 6 µM
- IC50 [3, 9]: 17 µM

Compound: C=C1/C(=C\C=C2/CCC[C@]3(C)C(C4(CC#CC(O)(C(F)(F)F)C(F)(F)F)CC4)=CCC23)CC(O)C[C@@H]1O (stereo partly drawn) [1,25-Dihydroxy-16-ene-20-cyclopropyl-23,24-yne-26,27 hexafluoro-cholecalciferol]
- IC50 [2, 8]: 13.8 µM
- IC50 [3, 9]: 1.7 µM

Compound: C=C1/C(=C\C=C2/CCC[C@@]3(C)C2CCC3[C@@H](CCCC(C)(C)O)CCC(O)C(C)(C)O)C[C@@H](O)C[C@@H]1O (stereo partly drawn) [1,25-Dihydroxy-21(2R,3-dihydroxy-3-methyl-butyl)-20S-Cholecalciferol]
- IC50 [1, 7]: 69.4 µM
- IC50 [2, 8]: 1 µM
- IC50 [3, 9]: 62 µM

Compound: C=C1/C(=C\C=C2/CCC[C@@]3(C)C2CCC3C(CCCC(C)(C)O)CCC(O)C(C)(C)O)C[C@@H](O)C[C@@H]1O (stereo partly drawn) [1,25-Dihydroxy-21-(2R,3-dihydroxy-3-methyl-butyl)-20R-Cholecalciferol]
- IC50 [1, 7]: 57.9 µM
- IC50 [2, 8]: 25 µM
- IC50 [3, 9]: 71 µM

Compound: CC(C)(O)CCC[C@@H](CC[C@@H](O)C(C)(C)O)[C@H]1CC[C@H]2/C(=C/C=C3C[C@@H](O)C[C@H](O)C3)CCC[C@]12C [1,25-Dihydroxy-21-(2R,3-dihydroxy-3-methyl-butyl)-20S-19-nor-cholecalciferol]
- IC50 [1, 7]: 99.2 µM
- IC50 ([2]; Homo sapiens, RT-112, 96-h culture): 44 µM
- IC50 ([3]; Homo sapiens, RT-4, 96-h culture): 72 µM

Compound: C=C1/C(=C\C=C2/CCC[C@]3(C)C([C@H](C)CCCC(C)(C)O)CC[C@@H]23)C[C@@H](O)C[C@@H]1O (stereo partly drawn) [1,25-Dihydroxycholecalciferol]
- IC50 ([2]; 96-h culture): 28.7 µM
- IC50 [2, 8]: 19 µM
- IC50 ([3]; 96-h culture): 26 µM
- IC50 [3, 9]: 45 µM
- Expression of 24-hydroxylase (CYP24) [4]: up-regulation of CYP24
- Area (230 nm) [5, 10]: 2068192 and 1960823
- Area (254 nm) [5, 10]: 2710511 and 2589663
- Area (230 nm) [5, 11]: 2027619 and 1954501
- Area (254 nm) [5, 11]: 2674857 and 2572268
- Area (230 nm) [5, 12]: 3402919 and 3485146
- Area (254 nm) [5, 12]: 4981173 and 5116113

Compound: CC(C)(O)CCC[C@@H](CCC(=O)C(C)(C)O)[C@H]1CC[C@H]2/C(=C/C=C3C[C@@H](O)C[C@H](O)C3)CCC[C@]12C [1,25-dihydroxy-20S-21(3-hydroxy-3-methyl-butyl)-24-keto-19-nor-cholecalciferol]
- IC50 [2, 8]: > 30 µM
- IC50 [3, 9]: 2.6 µM

Compound: C=C1/C(=C\C=C2/CCC[C@]3(C)[C@@H]([C@@H](CCCC(C)(C)O)CCC(=O)C(C)(C)O)CC[C@@H]23)C[C@@H](O)C[C@@H]1O [1,25-dihydroxy-20S-21(3-hydroxy-3-methyl-butyl)-24-keto-cholecalciferol]
- IC50 [2, 8]: 25.5 µM
- IC50 [3, 9]: 8.3 µM

Compound: C=C1/C(=C\C=C2/CCC[C@]3(C)C([C@@H](C)C/C=C/C(O)(CC)CC)=CC[C@@H]23)C[C@@H](O)C[C@@H]1F [1-alpha-fluoro-25-hydroxy-16,23E-diene-26,27-bishomo-20-epi-cholecalciferol]
- IC50 [1, 7]: 28 µM
- IC50 [2, 8]: 12 µM
- IC50 [3, 9]: 16 µM

Compound: CC(C)(O)CCCC1(C2=CCC3/C(=C/C=C4/CC(O)C[C@H](O)C4)CCC[C@]23C)CC1 (stereo partly drawn) [1α,25-Dihydroxy-16-ene-20-cyclopropyl-19-nor-cholecalciferol]
- IC50 [2, 8]: > 30 µM
- IC50 [3, 9]: 9.9 µM

Compound: C=C1/C(=C\C=C2/CCC[C@]3(C)C(C4(C/C=C/C(O)(C(F)(F)F)C(F)(F)F)CC4)=CCC23)CC(O)C[C@@H]1O (stereo partly drawn) [1α,25-Dihydroxy-16-ene-20-cyclopropyl-23,24-E-ene-26,27-hexafluoro cholecalciferol]
- IC50 [2, 8]: 10.6 µM
- IC50 [3, 9]: 2.3 µM

Compound: C=C1/C(=C\C=C2/CCC[C@]3(C)C(C4(C/C=C\C(O)(C(F)(F)F)C(F)(F)F)CC4)=CCC23)CC(O)C[C@@H]1O (stereo partly drawn) [1α,25-Dihydroxy-16-ene-20-cyclopropyl-23,24-Z-ene-26,27-hexafluoro-cholecalciferol]
- IC50 [2, 8]: 15.5 µM
- IC50 [3, 9]: 3.3 µM

Compound: C[C@]12CCC/C(=C\C=C3\CC(O)C[C@H](O)C3)C1CC=C2C1(C/C=C\C(O)(C(F)(F)F)C(F)(F)F)CC1 (stereo partly drawn) [1α,25-Dihydroxy-16-ene-20-cyclopropyl-23,24-f-ene-2627-hexafluoro-19-nor-cholecalciferol]
- IC50 [2, 8]: 9.6 µM
- IC50 [3, 9]: 2.2 µM

Compound: C=C1/C(=C\C=C2/CCC[C@]3(C)C(C4(CCCC(C)(C)O)CC4)=CCC23)CC(O)C[C@@H]1O (stereo partly drawn) [1α,25-Dihydroxy-16-ene-20-cyclopropyl-cholecalciferol]
- IC50 [2, 8]: 27.6 µM
- IC50 [3, 9]: 2 µM

Compound: C[C@]12CCC/C(=C\C=C3\CC(O)C[C@H](O)C3)C1CC=C2C1(C/C=C/C(O)(C(F)(F)F)C(F)(F)F)CC1 (stereo partly drawn) [1α,25-hydroxy-16-ene-20-cyclopropyl-23,24-E-ene-26,27-hexafluoro-19-nor-cholecalciferol]
- IC50 [2, 8]: 14.5 µM
- IC50 [3, 9]: 4.6 µM

Compound: C=C1/C(=C\C=C2/CCC[C@]3(C)C(C4(C/C=C/C(O)(C(F)(F)F)C(F)(F)F)CC4)=CCC23)CC(O)C[C@@H]1F (stereo partly drawn) [1α-Fluoro-25-hydroxy-16,23E-diene-20-cyclopropyl-26,27-hexafluoro-cholecalciferol]
- IC50 ([2]; 96-h culture): 17 µM
- IC50 ([3]; 96-h culture): 3.6 µM

Compound: C=C1/C(=C\C=C2/CCC[C@]3(C)C(C4(C/C=C\C(O)(C(F)(F)F)C(F)(F)F)CC4)=CCC23)CC(O)C[C@@H]1F (stereo partly drawn) [1α-Fluoro-25-hydroxy-16,23Z-diene-20-cyclopropyl-26,27-hexafluoro-cholecalciferol]
- IC50 ([2]; 96-h culture): 21 µM
- IC50 ([3]; 96-h culture): 3.1 µM

Compound: C=C1/C(=C\C=C2/CCC[C@]3(C)C(C4(CC#CC(O)(C(F)(F)F)C(F)(F)F)CC4)=CCC23)CC(O)C[C@@H]1F (stereo partly drawn) [1α-Fluoro-25-hydroxy-16-ene-20-cyclopropyl-23-yne-26,27-hexafluoro-cholecalciferol]
- IC50 ([2]; 96-h culture): 16.9 µM
- IC50 ([3]; 96-h culture): 3.6 µM

Compound: C[C@]12CCC/C(=C\C=C3\CC(O)C[C@H](O)C3)C1CC=C2C1(CC#CC(O)(C(F)(F)F)C(F)(F)F)CC1 (stereo partly drawn) [14215-Dihydroxy-16-ene-20-cyclopropyl-23,41-yne-26,27-hexafluoro-19-nor-cholecalciferol]
- IC50 [2, 8]: 22.7 µM
- IC50 [3, 9]: 5.2 µM

Compound: N.N.O=C([O-])C1(C(=O)[O-])CCC1.[Pt+2] [carboplatin]
- Synergism or antagonism on bladder cancer cell proliferation in combination with calcitriol [6]: does not result in any additive or synergistic effect

Compound: N.N.[Cl][Pt][Cl] [cisplatin]
- Synergism or antagonism on bladder cancer cell proliferation in combination with calcitriol [6]: does not result in any additive or synergistic effect

Compound: COc1cccc2c1C(=O)c1c(O)c3c(c(O)c1C2=O)C[C@@](O)(C(=O)CO)C[C@@H]3O[C@H]1C[C@H](N)[C@H](O)[C@H](C)O1 [doxorubicin]
- Synergism or antagonism on bladder cancer cell proliferation in combination with calcitriol [6]: strong synergistic effect

Compound: COc1cccc2c1C(=O)c1c(O)c3c(c(O)c1C2=O)C[C@@](O)(C(=O)CO)C[C@@H]3O[C@H]1C[C@H](N)[C@@H](O)[C@H](C)O1 [epirubicin]
- Synergism or antagonism on bladder cancer cell proliferation in combination with calcitriol [6]: strong synergistic effect
- Area (230 nm) [5, 10]: 53425733 and 53877070
- Area (254 nm) [5, 10]: 44443024 and 44731107
- Area (230 nm) [5, 11]: 52245312 and 50817806
- Area (254 nm) [5, 11]: 43984488 and 43221785
- Area (230 nm) [5, 12]: 30443828 and 30511286 and 30555666
- Area (254 nm) [5, 12]: 23243121 and 23243599 and 23383366

Compound: Nc1ccn([C@@H]2O[C@H](CO)[C@@H](O)C2(F)F)c(=O)n1 [gemcitabine]
- Synergism or antagonism on bladder cancer cell proliferation in combination with calcitriol [6]: strong antagonistic effect
